Results taken from patent publication US20090076140A1, “PHARMACEUTICAL COMPOSITIONS CONTAINING SULPHONIC ACID DERIVATIVES” (ITALFARMACO, S. A., priority 2003, published 2009).
Entries after “also recorded” stand apart in the source; their conditions may differ. Like-named read-outs stand apart in the source and are kept apart here.

Columns and labels:
aFGF [1] = target: T1, aFGF (Homo sapiens, UniProt P05230); set-up: the aFGF of 139 amino acid residues; conditions: Lozano et al. (1998), cited from earlier work
Target sequence in this assay (P05230 16-155 limits assumed): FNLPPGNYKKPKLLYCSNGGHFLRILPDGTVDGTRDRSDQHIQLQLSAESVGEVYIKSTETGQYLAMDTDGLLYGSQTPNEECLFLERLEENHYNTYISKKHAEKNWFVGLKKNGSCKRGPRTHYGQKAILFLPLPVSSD

aFGF [2] = target: T1, aFGF; conditions: literature (Pesenti et al.; Cuevas et al.); cited from earlier work
Target sequence in this assay (P05230 whole entry, species assumed): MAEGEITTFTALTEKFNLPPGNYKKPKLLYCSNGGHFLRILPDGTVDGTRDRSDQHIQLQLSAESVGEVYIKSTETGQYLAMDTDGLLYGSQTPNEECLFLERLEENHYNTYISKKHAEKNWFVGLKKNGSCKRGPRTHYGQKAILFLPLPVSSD

aFGF [3] = target: T1, aFGF; conditions: in vitro and in vivo; cited from earlier work
Target sequence in this assay (P05230 whole entry, species assumed): as above

[4] = system: quiescent fibroblasts (Balb/c 3T3); conditions: Lozano et al. (1998), cited from earlier work
[5] = system: quiescent fibroblasts (Balb/c 3T3); test: toxicity analysis for quiescent fibroblasts (culture in the absence of aFGF); type: cell-based; conditions: for toxicity for quiescent fibroblasts: within the concentration range tested / in which aFGF mitogenic activity is inhibited
aFGF [6] = target: T1, aFGF; test: aFGF-induced mitogenesis inhibition test on fibroblasts in culture; type: cell-based; set-up: the aFGF of 139 amino acid residues; conditions: for aFGF-induced mitogenic activity inhibition (in words): 60 hours, MIHS 20 μg/mL, aFGF 0.32 ng/mL
Target sequence in this assay (P05230 16-155 limits assumed): as the sequence (P05230 16-155 limits assumed) above

[7] = toxicity observations in the mouse angiogenesis test; type: in vivo; conditions: highest tested concentrations
Method: (§1) Pathogen-free C57/BI/6 mice (Charles River, Spain) weighing 25±4 g were used. The animals were kept in plastic cages under controlled temperature and humidity conditions; they had water and food ad libitum and a schedule of 12 hours of daylight and darkness was maintained. The guidelines on animal welfare of the NIH and the European Union were followed meticulously.
10 mm long sterile gelatin sponge cubes (Curaspon Dental, Clinimed Holding, Zwanenburg, Holland) were subcutaneously implanted in the backs of the mice after inducing intraperitoneal anesthesia [Cuevas, P. et al. (1999) Neurol. Res. 21, 191-194]. The animals were distributed into 2 groups: Group A (n=10): formed by animals in which sponges loaded with 200 μL of phosphate buffered saline (PBS) containing 29 μg/mL of heparin were implanted; and Group B (n=40): formed by animals in which sponges soaked with the same solution as that of Group A but containing 10 μg/mL of aFGF were implanted. The skin was sutured after implanting the sponge in the subcutaneous bursa. The mice in Group B were randomly divided into four groups (n=10) that received 0.008, 0.08, 0.8 and 8 mg/kg of compound C-9, respectively, by means of intraperitoneal injection of 200 μL of PBS 24 hours after surgical treatment [Pesenti, E. et al. (1992) Brit. J. Cancer 66, 367-372; Cuevas, P. et al. (1999) Neurol. Res. 21, 191-194]. […]

glioma C6 cells = test: angiogenesis and tumor growth inhibition, glioma C6 cells implanted in rabbit cornea; type: in vivo, Albino New Zealand rabbits
Method: Albino New Zealand rabbits (3±0.5 kg, male and female in equal numbers) were used and were implanted with 5 μL of a glioma C6 cell suspension [ATCC CCL-107] subepithelially injected into the cornea with a 10 μL Hamilton syringe using a surgical microscope. The injection is located at 2 mm from the limbal margin of the cornea. At the same time, an osmotic minipump was subcutaneously implanted in the neck region for the purpose of assuring continuous infusion of the compound to be tested (C-9) or of a saline solution (control). A catheter guided the solution to the sclera at a constant rate of 0.2 mg/h. It is thus calculated that a concentration of about 0.003 mg/mL of the compound to be tested or saline solution is maintained in the cornea. Treatment was maintained for 14 days. The corneas were eliminated at the end of each experiment and at fixed intervals after each treatment and processed for histological examination.

bFGF = bFGF (Homo sapiens, UniProt P09038); test: angiogenesis inhibition test in mice with aFGF substituted with bFGF; type: in vivo; conditions: data not shown
Chain of bFGF (P09038 143-288, species assumed): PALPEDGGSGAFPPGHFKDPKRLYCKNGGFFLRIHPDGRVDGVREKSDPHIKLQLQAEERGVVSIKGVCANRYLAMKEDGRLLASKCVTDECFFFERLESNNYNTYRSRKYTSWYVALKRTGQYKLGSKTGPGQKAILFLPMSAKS

C6 glioma cells = test: angiogenesis and tumor growth inhibition, C6 glioma cells implanted in rat brain; type: in vivo, rats
Method: A test similar to the one described in Example 3.1 was performed with rats, implanting the C6 glioma cells in the caudal area of the brain and the osmotic micropump in the back of the rats. A catheter led the treatment solution that contained the C-9 compound or the saline solution to the area of the glioma implant. Coronal sections of the brain of the rats thus treated were obtained and compared with coronal sections of the brain of untreated rats. The analysis was done by means of NMR spectroscopy imaging.

aFGF [8] = target: T1, aFGF; test: angiogenesis inhibition test in mice (aFGF-soaked gelatin sponge implants); type: in vivo
Method: A standard angiogenesis test was performed with mice in order to evaluate the C-9 compound as an angiogenesis inhibitor.
as §1
Target sequence in this assay (P05230 whole entry, species assumed): as the sequence (P05230 whole entry, species assumed) above
10 mm long sterile gelatin sponge cubes (Curaspon Dental, Clinimed Holding, Zwanenburg, Holland) were subcutaneously implanted in the backs of the mice after inducing intraperitoneal anesthesia [Cuevas, P. et al. (1999) Neurol. Res. 21, 191-194]. The animals were distributed into 2 groups: Group A (n=10): formed by animals in which sponges loaded with 200 μL of phosphate buffered saline (PBS) containing 29 μg/mL of heparin were implanted; and Group B (n=40): formed by animals in which sponges soaked with the same solution as that of Group A but containing 10 μg/mL of aFGF were implanted. The skin was sutured after implanting the sponge in the subcutaneous bursa. The mice in Group B were randomly divided into four groups (n=10) that received 0.008, 0.08, 0.8 and 8 mg/kg of compound C-9, respectively, by means of intraperitoneal injection of 200 μL of PBS 24 hours after surgical treatment [Pesenti, E. et al. (1992) Brit. J. Cancer 66, 367-372; Cuevas, P. et al. (1999) Neurol. Res. 21, 191-194]. All the procedures were performed under sterile conditions.
In order to evaluate angiogenesis, the mice were again anesthetized as previously described, and the sponges were surgically extracted, which were treated to perform histological studies by means of conventional methods [Cuevas, P. et al. (1999) Neurol. Res. 21, 191-194] 7 days after the implants. Neovascularization was quantified by means of a morphometric computer program connected to a microscope. The growth of new vessels inside the sponges was evaluated by means of the measurement of the surface area containing erythrocytes. Neovascularization was analyzed in 4 predetermined visual fields of 3 different sections at a magnification of 10. The statistical analyses were performed using Student's t-Test.

Structure (SMILES): O=S(=O)(O)c1ccc2c(S(=O)(=O)O)cc(S(=O)(=O)O)cc2c1 [1,3,6-NTS, 1,3,6-naphthalenetrisulfonic acid]
- aFGF-induced mitogenic activity inhibition (literature) (aFGF [1]): aFGF-induced mitogenic activity inhibitors
- concentration required to reach substantial neovascularization inhibition (aFGF [2]): about 200 mg/kg
- aFGF-induced angiogenesis and glioma proliferation inhibition (literature) (aFGF [3]): positive results

Structure (SMILES): O=S(=O)(O)c1cccc2c(S(=O)(=O)O)cccc12 [1,5-NDS, 1,5-naphthalenedisulfonic acid, reference compound]
- aFGF-induced mitogenic activity inhibition (literature) (aFGF [1]): better aFGF mitogenic activity inhibitors than NTS; also recorded: aFGF-induced mitogenic activity inhibitors
- toxicity at concentrations at which aFGF mitogenic activity is inhibited (literature) [4]: clear toxicity; also recorded: toxic

Structure (SMILES): O=S(=O)(O)c1cccc2ccccc12 [Compound C-1, 1-naphthalenesulfonic acid]
- toxicity for quiescent fibroblasts [5]: certain toxic effect
- aFGF-induced mitogenic activity inhibition (in words) (aFGF [6]; Balb/c 3T3 fibroblasts): aFGF-induced mitogenic activity inhibitors
- aFGF-induced mitogenic activity inhibition (literature) (aFGF [1]; listed as 1-NMS): better aFGF mitogenic activity inhibitors than NTS; also recorded: aFGF-induced mitogenic activity inhibitors; also recorded: more potent inhibitor than 1,3,6-NTS and 1,5-NDS
- toxicity at concentrations at which aFGF mitogenic activity is inhibited (literature) ([4]; listed as 1-NMS): clear toxicity; also recorded: toxic

Structure (SMILES): Nc1cccc2cc(S(=O)(=O)[O-])ccc12.[Na+] [Compound C-9, sodium 5-amino-2-naphthalenesulfonate]
- toxic death or apparent alterations in the animals [7]: did not cause any toxic death or apparent alterations
- weight changes [7]: nor did it cause weight changes
- apoptosis index (glioma C6 cells; continuous infusion 0.2 mg/h, 14 days): very positive
- corneal neovascularization area (glioma C6 cells; in comparison with the untreated animals): very reduced
- apoptotic endothelial nuclei (microscopic observation) (glioma C6 cells; treated animals): presence of apoptotic endothelial nuclei
- broken blood vessels (microscopic observation) (glioma C6 cells; treated animals): presence of broken blood vessels
- number of apoptotic bodies (microscopic observation) (glioma C6 cells; treated animals): higher number
- number of glioma C6 cells (microscopic observation) (glioma C6 cells; treated animals): lower number
- mitogenesis inductor / tumorigenic effect on quiescent fibroblasts in the absence of aFGF ([5]; absence of aFGF): does not occur
- toxicity for quiescent fibroblasts [5]: innocuous
- toxicity for quiescent fibroblasts ([5]; listed as sodium 5-amino-2-naphthalenesulfonate): not toxic
- aFGF-induced mitogenic activity inhibition (in words) (aFGF [6]; Balb/c 3T3 fibroblasts): potent aFGF-induced mitogenic activity inhibitors
- aFGF-induced mitogenic inhibitory activity compared between compounds (stereochemical guidelines) (aFGF [6]; C-9 and C-17 vs. C-14 and C-18, C-10, C-11, C-13 vs. C-9, 2-NMS vs 1-NMS series): better aFGF-induced mitogenic activity inhibitors
- IC50 rank among the tested compounds (aFGF [6]; aFGF-induced mitogenesis): second best IC50 value
- IC50 (aFGF [6]; aFGF-induced mitogenesis, Balb/c 3T3 fibroblasts, read-out: inhibitory activity IC50): 265 µM
- neovascularization inhibition with bFGF instead of aFGF (bFGF): Equivalent results
- tumor mass (C6 glioma cells; NMR imaging of coronal brain sections vs untreated rats): significantly decreased
- intratumor vascularization inhibition (factor) (C6 glioma cells; rat, in vivo): six
- neovascularization inhibition (aFGF [8]; 0.008 mg/kg intraperitoneal, 7 days after implants): already assessable
- neovascularization inhibition (aFGF [8]; 0.08 mg/kg intraperitoneal, 7 days after implants): already assessable
- cellular infiltration in aFGF-soaked sponge implants (aFGF [8]; 8 mg/kg intraperitoneal, FIG. 2): disappears
- neovascularization inhibition (aFGF [8]; doses exceeding 0.8 mg/kg intraperitoneal): virtually complete
- aFGF-induced angiogenic activity inhibition (in words) (aFGF [8]; mouse, in vivo): aFGF-induced angiogenic activity inhibitors
- neovascularization inhibition compared with suramines and 1,3,6-NTS (aFGF [8]; mouse, in vivo): considerably more effective neovascularization inhibitor

Structure (SMILES): O=S(=O)([O-])c1cccc2cccnc12.[Na+] [Compound C-24, sodium 8-quinolinesulfonate]
- toxicity for quiescent fibroblasts [5]: innocuous
- aFGF-induced mitogenic activity inhibition (in words) (aFGF [6]; Balb/c 3T3 fibroblasts): little aFGF-induced mitogenesis inhibitory activity
